{"source": "patent US20190110993A1", "about": "“Solid Nanoparticle Formulation of Water Insoluble Pharmaceutical Substances with Reduced Ostwald Ripening” (priority 2017, published 2019)", "key": {"[1]": {"test_system": "PANC-1 human pancreatic tumor xenografts", "assay": "PANC-1 xenograft model", "format": "in vivo, athymic nude mice", "conditions": "PANC-1, 28 mg/kg once every third day for three treatments", "protocol": "The anti-tumor efficacy studies of LBI-1103 in the MDA-MB-468 xenograft model as compared to Taxotere® and in the PANC-1 xenograft model as compared to Taxotere® and Gemcytabine were completed recently. The controls and LBI-1103 were injected intravenously once every other day for three treatments except for PANC-1 xenograft animals, where they were treated with Gemcitabine once every third day for three treatments.\nIn the PANC-1 xenograft models treated with LBI-1103, Taxotere® and Gemcitabine, a significant reduction in tumor weight was observed after the first day of dosing and this trend continued till the end of the study (FIG. 19)."}, "[2]": {"conditions": "cited from earlier work"}, "[3]": {"conditions": "after irinotecan; cited from earlier work"}, "[4]": {"test_system": "topoisomerase I purified from human and rodent tumor cell lines", "conditions": "more potent than irinotecan; cited from earlier work"}, "human plasma proteins": {"test_system": "human plasma proteins", "conditions": "cited from earlier work"}, "[5]": {"conditions": "in blood; cited from earlier work"}, "[6]": {"conditions": "cited from earlier work; for solubility in the infusion solution: Jevtana infusion solution"}}, "note": "Read-outs that look alike come from different tables or passages of the source.", "data": [{"smiles": "Nc1ccn([C@@H]2O[C@H](CO)[C@@H](O)C2(F)F)c(=O)n1", "note": "[Gemcytabine, Gemcitabine]", "values": [{"measurement": "tumor regression, mean tumor weight on last day of study compared to Day 1", "setting": "[1]", "result": 73, "unit": "%"}]}, {"smiles": "C/C(=C\\c1csc(C)n1)[C@@H]1C[C@@H]2O[C@]2(C)CCC[C@H](C)[C@H](O)[C@@H](C)C(=O)C(C)(C)[C@@H](O)CC(=O)N1", "note": "[Ixabepilone]", "values": [{"measurement": "solubility in water", "setting": "[2]", "result": "about 3.5 mg/L"}]}, {"smiles": "CCc1c2c(nc3ccc(O[C@@H]4O[C@H](C(=O)O)[C@@H](O)[C@H](O)[C@H]4O)cc13)-c1cc3c(c(=O)n1C2)COC(=O)[C@]3(O)CC", "note": "[SN-38 glucuronide]", "values": [{"measurement": "urinary excretion", "setting": "[3]", "result": 3, "unit": "%"}]}, {"smiles": "CCc1c2c(nc3ccc(O)cc13)-c1cc3c(c(=O)n1C2)COC(=O)[C@]3(O)CC", "note": "[SN-38]", "values": [{"measurement": "potency as inhibitor of topoisomerase I relative to irinotecan", "setting": "[4]", "result": "approximately 1000 times"}, {"measurement": "plasma protein binding (bound)", "setting": "human plasma proteins; SN-38: human plasma proteins, mainly albumin", "result": "approximately 95%"}, {"measurement": "binding to plasma proteins", "setting": "human plasma proteins; adults and pediatric patients, independent of serum albumin levels", "result": "94-96%"}, {"measurement": "urinary excretion", "setting": "[3]", "result": "< 1", "unit": "%"}, {"measurement": "bound, mainly to albumin and lymphocytes, also erythrocytes and neutrophils", "setting": "[5]", "result": "at least 99%"}]}, {"smiles": "CO[C@H]1C(=O)[C@]2(C)[C@@H](OC)C[C@H]3OC[C@@]3(OC(C)=O)[C@H]2[C@H](OC(=O)c2ccccc2)[C@]2(O)C[C@H](OC(=O)[C@H](O)[C@@H](NC(=O)OC(C)(C)C)c3ccccc3)C(C)=C1C2(C)C", "note": "[cabazitaxel]", "values": [{"measurement": "solubility in water", "setting": "[2]", "result": "about 8 mg/L"}, {"measurement": "solubility in the infusion solution", "setting": "[6]; 5° C.", "result": 80, "unit": "µg/mL"}, {"measurement": "solubility in the infusion solution", "setting": "[6]; 25° C.", "result": 60, "unit": "µg/mL"}, {"measurement": "solubility in the premix", "setting": "[6]; Jevtana premix solution (cabazitaxel concentration 10 mg/mL)", "result": 3440, "unit": "µg/mL"}]}, {"smiles": "CC(=O)O[C@@]12CO[C@@H]1C[C@H](O)[C@@]1(C)C(=O)[C@H](O)C3=C(C)[C@@H](OC(=O)[C@H](O)[C@@H](NC(=O)OC(C)(C)C)c4ccccc4)C[C@@](O)([C@@H](OC(=O)c4ccccc4)[C@H]21)C3(C)C", "note": "[docetaxel]", "values": [{"measurement": "solubility in water", "setting": "[2]", "result": "about 14 mg/L"}]}, {"smiles": "CCc1c2c(nc3ccc(OC(=O)N4CCC(N5CCCCC5)CC4)cc13)-c1cc3c(c(=O)n1C2)COC(=O)[C@]3(O)CC", "note": "[irinotecan]", "values": [{"measurement": "bound to and/or localized in erythrocytes", "setting": "[5]", "result": 80, "unit": "%"}]}, {"smiles": "CC(=O)O[C@H]1C(=O)[C@@]2(C)[C@H]([C@H](OC(=O)c3ccccc3)[C@]3(O)C[C@H](OC(=O)[C@H](O)[C@@H](NC(=O)c4ccccc4)c4ccccc4)C(C)=C1C3(C)C)[C@]1(OC(C)=O)CO[C@@H]1C[C@@H]2O", "note": "[paclitaxel]", "values": [{"measurement": "solubility in water", "setting": "[2]", "result": "about 0.4 mg/L"}]}]}
